Assay results as given in patent US6855843B2, “Inhibitors of α4 mediated cell adhesion” (Tanabe Seiyaku Co., Ltd., priority 1998, dated 2005).

The compounds below were run against T1, α4β7 (adhesion of RPMI cells to CS-1) (Homo sapiens, UniProt P13612+P26010) (assay: RPMI-CS-1 cell adhesion assay). Details: adhesion of RPMI B-cell line (expresses α4β7) to CS-1 peptide coated microwells; read-out: RPMI-CS-1 IC50 value range.
T1 construct: endogenous in cells
T1 sequence (P13612 34-1032): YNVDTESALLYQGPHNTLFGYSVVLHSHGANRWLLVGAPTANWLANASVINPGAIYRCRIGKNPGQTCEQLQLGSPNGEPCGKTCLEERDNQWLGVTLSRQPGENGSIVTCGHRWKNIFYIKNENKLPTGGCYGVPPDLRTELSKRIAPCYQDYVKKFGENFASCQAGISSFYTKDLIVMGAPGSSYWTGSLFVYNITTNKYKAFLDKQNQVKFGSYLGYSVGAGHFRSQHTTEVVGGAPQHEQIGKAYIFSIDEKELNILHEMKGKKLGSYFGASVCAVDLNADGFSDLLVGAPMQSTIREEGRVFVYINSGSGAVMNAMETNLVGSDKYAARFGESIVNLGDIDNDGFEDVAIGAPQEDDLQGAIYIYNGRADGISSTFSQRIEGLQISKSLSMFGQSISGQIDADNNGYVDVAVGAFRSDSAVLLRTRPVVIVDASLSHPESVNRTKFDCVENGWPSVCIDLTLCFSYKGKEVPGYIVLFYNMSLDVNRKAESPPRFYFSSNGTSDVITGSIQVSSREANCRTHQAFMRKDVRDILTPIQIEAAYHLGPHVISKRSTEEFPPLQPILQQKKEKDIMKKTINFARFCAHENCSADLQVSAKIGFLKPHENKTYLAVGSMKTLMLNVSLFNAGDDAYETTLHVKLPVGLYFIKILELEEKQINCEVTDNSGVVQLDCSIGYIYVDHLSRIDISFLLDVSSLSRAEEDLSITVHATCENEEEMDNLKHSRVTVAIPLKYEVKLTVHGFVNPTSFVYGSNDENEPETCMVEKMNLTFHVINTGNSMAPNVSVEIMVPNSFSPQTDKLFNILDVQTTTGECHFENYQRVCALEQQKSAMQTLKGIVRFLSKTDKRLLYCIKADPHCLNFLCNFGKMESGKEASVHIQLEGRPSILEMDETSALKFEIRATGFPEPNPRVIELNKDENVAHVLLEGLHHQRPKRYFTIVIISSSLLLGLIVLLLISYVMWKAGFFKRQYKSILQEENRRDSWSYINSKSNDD
T1 sequence (P26010 20-798): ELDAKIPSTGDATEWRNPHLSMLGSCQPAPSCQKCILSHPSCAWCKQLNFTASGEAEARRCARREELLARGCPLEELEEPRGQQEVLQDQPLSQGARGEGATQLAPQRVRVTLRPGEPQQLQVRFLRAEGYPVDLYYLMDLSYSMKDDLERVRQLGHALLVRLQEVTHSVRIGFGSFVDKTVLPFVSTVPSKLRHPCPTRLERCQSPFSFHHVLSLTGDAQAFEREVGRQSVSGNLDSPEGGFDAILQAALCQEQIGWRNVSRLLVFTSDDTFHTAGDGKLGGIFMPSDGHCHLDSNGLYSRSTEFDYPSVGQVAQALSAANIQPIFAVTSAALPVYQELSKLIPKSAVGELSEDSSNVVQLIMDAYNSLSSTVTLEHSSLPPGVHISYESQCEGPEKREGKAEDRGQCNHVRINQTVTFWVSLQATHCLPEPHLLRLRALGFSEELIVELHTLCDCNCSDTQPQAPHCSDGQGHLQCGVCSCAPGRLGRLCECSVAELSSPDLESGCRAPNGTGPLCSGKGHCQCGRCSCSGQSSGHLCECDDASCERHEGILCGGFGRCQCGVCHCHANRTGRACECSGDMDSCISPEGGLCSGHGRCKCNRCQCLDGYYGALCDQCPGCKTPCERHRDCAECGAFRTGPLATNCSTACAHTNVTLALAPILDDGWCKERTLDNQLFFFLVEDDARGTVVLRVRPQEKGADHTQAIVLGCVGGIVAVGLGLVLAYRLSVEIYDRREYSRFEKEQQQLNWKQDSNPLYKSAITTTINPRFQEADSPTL
Format: cell-based
Description: RPMI-CS-1 Cell Adhesion Assay:
The test compounds were added in increasing concentrations to RPMI cells and then the cell-compound mixture was added to CS-1 coated microwells. The plates were incubated, washed and the percentage of attached cells were quantitated.
The CS-1 derived peptide, […], and the scrambled control peptide, […], were synthesized at Tanabe Research Laboratories, USA, Inc. on a Beckman 990 synthesizer using t-Boc methodology. […] Microtiter plates were coated with 20 μg/ml human serum albumin (HSA) for 2 hours at room temperature, washed once with PBS and derivatized with 10 μg/ml SPDP for 1 hour. […] Unbound peptide was removed from the plates by washing with PBS. To block non-reacted sites, the plates were coated with 100 μl of a 2.5 mg/ml BSA solution in PBS for one hour at 37° C. 100 μl of RPMI cells (2.5×10^6 cells/ml) in Dulbecco's Modified Eagles Medium (DMEM) plus 0.25% ovalbumin were added to peptide coated dishes and incubated for 1 hour at 37° C. […] To do this, the enzyme substrate p-nitrophenyl-N-acetyl-β-D-glucoseaminide is dissolved at 7.5 mM in 0.1 M citrate buffer pH 5 and then mixed with an equal volume of 0.5% Triton X100. 50 μl of the substrate solution was added to the plates and the plates were incubated at 37° C. for 60 minutes.
In this assay, IC50 value ranges (μM) are depicted by A, B, C and D. These ranges as follows. D>5≧C>1≧B>0.3≧A
`CC(=O)Nc1ccccc1-c1ccc(C[C@H](NC(=O)c2c(Cl)cccc2Cl)C(=O)O)cc1` [Example 25] was tested, and the IC50 was 300 to 1000 nM. In the case of `COC(=O)Nc1ccccc1-c1ccc(C[C@H](NC(=O)c2c(Cl)cccc2Cl)C(=O)O)cc1` [Example 26, N-(2,6-Dichlorobenzoyl)-4-[2-(methoxycarbonylamino)phenyl]-L-phenylalanine], the IC50 is reported as 300 to 1000 nM. With `CN(C)c1ccccc1-c1ccc(C[C@H](NC(=O)c2c(Cl)cccc2Cl)C(=O)O)cc1` [Example 27, N-(2,6-Dichlorobenzoyl)-4-[2-(N,N-dimethylamino)phenyl]-L-phenylalanine] the IC50 was less than 300 nM. Compound `NC(=O)Nc1ccccc1-c1ccc(C[C@H](NC(=O)c2c(Cl)cccc2Cl)C(=O)O)cc1` [Example 28, N-(2,6-Dichlorobenzoyl)-4-(2-ureidophenyl)-L-phenylalanine] has an IC50 of 300 to 1000 nM. `COc1cccc(N(C)C)c1-c1ccc(C[C@H](NC(=O)c2c(Cl)cccc2Cl)C(=O)O)cc1` [Example 29, N-(2,6-Dichlorobenzoyl)-4-[2-(N,N-dimethylamino)-6-methoxyphenyl]-L-phenylalanine] was tested, and the IC50 was 1000 to 5000 nM. With `O=C(N[C@@H](Cc1ccc(-c2ccccc2O)cc1)C(=O)O)c1c(Cl)cccc1Cl` [Example 30, N-(2,6-Dichlorobenzoyl)-4-(2-hydroxyphenyl)-L-phenylalanine] the IC50 was 300 to 1000 nM. `COc1cccc(O)c1-c1ccc(C[C@H](NC(=O)c2c(Cl)cccc2Cl)C(=O)O)cc1` [Example 31, N-(2,6-Dichlorobenzoyl)-4-(2-hydroxy-6-methoxyphenyl)-L-phenylalanine] showed an IC50 of less than 300 nM. `O=C(O)COc1ccccc1-c1ccc(C[C@H](NC(=O)c2c(Cl)cccc2Cl)C(=O)O)cc1` [Example 32, N-(2,6-Dichlorobenzoyl)-4-[2-(carboxymethoxy)-phenyl]-L-phenylalanine] gave an IC50 of less than 300 nM. `COC(=O)[C@H](Cc1ccc(-c2ccccc2OCC#N)cc1)NC(=O)c1c(Cl)cccc1Cl` [Example 33, N-(2,6-Dichlorobenzoyl)-4-[2-(cyanomethoxy)phenyl]-L-phenylalanine methyl ester] was tested, and the IC50 was 300 to 1000 nM. With `CCCCOc1ccccc1-c1ccc(C[C@H](NC(=O)c2c(Cl)cccc2Cl)C(=O)O)cc1` [Example 34] the IC50 was 1000 to 5000 nM. `CC(C)COc1ccccc1-c1ccc(C[C@H](NC(=O)c2c(Cl)cccc2Cl)C(=O)O)cc1` [Example 35] gave an IC50 of 1000 to 5000 nM. For `O=C(O)CCCOc1ccccc1-c1ccc(C[C@H](NC(=O)c2c(Cl)cccc2Cl)C(=O)O)cc1` [Example 36], the IC50 was less than 300 nM. In the case of `O=C(N[C@@H](Cc1ccc(-c2ccccc2OCCCO)cc1)C(=O)O)c1c(Cl)cccc1Cl` [Example 37], the IC50 is reported as 300 to 1000 nM. Compound `O=C(N[C@@H](Cc1ccc(-c2ccccc2OCc2ccccn2)cc1)C(=O)O)c1c(Cl)cccc1Cl` [Example 38] has an IC50 of 300 to 1000 nM. Compound `O=C(N[C@@H](Cc1ccc(-c2ccccc2OCc2ccncc2)cc1)C(=O)O)c1c(Cl)cccc1Cl` [Example 39] has an IC50 of 300 to 1000 nM. `O=C(N[C@@H](Cc1ccc(-c2ccccc2OCc2cccnc2)cc1)C(=O)O)c1c(Cl)cccc1Cl` [Example 40] was tested, and the IC50 was 300 to 1000 nM. For `Cc1noc(C)c1COc1ccccc1-c1ccc(C[C@H](NC(=O)c2c(Cl)cccc2Cl)C(=O)O)cc1` [Example 41], the IC50 was 1000 to 5000 nM. `Cc1ncc(COc2ccccc2-c2ccc(C[C@H](NC(=O)c3c(Cl)cccc3Cl)C(=O)O)cc2)s1` [Example 42] showed an IC50 of 300 to 1000 nM. `CN1CCCC1CCOc1ccccc1-c1ccc(C[C@H](NC(=O)c2c(Cl)cccc2Cl)C(=O)O)cc1` (stereo partly shown) [Example 43] was tested, and the IC50 was 1000 to 5000 nM. With `CN1CCCC(COc2ccccc2-c2ccc(C[C@H](NC(=O)c3c(Cl)cccc3Cl)C(=O)O)cc2)C1` (stereo partly shown) [Example 44] the IC50 was 300 to 1000 nM. Work on `O=Cc1ccccc1-c1ccc(C[C@H](NC(=O)c2c(Cl)cccc2Cl)C(=O)O)cc1` [Example 45, N-(2,6-Dichlorobenzoyl)-4-(2-formylphenyl)-L-phenylalanine] yielded an IC50 of less than 300 nM. In the case of `O=C(N[C@@H](Cc1ccc(-c2ccccc2CNc2ccccc2)cc1)C(=O)O)c1c(Cl)cccc1Cl` [Example 46, N-(2,6-Dichlorobenzoyl)-4-[2-[(phenylamino)methyl]phenyl]-L-phenylalanine], the IC50 is reported as less than 300 nM. In the case of `NCc1ccccc1-c1ccc(C[C@H](NC(=O)c2c(Cl)cccc2Cl)C(=O)O)cc1` [Example 47, N-(2,6-Dichlorobenzoyl)-4-[2-(aminomethyl)phenyl]-L-phenylalanine], the IC50 is reported as less than 300 nM. Work on `O=C(N[C@@H](Cc1ccc(-c2ccccc2CNCc2ccccc2)cc1)C(=O)O)c1c(Cl)cccc1Cl` [Example 48, N-(2,6-Dichlorobenzoyl)-4-[2-[(benzylamino)methyl]phenyl]-L-phenylalanine] yielded an IC50 of 1000 to 5000 nM. Compound `O=C(N[C@@H](Cc1ccc(-c2ccccc2CO)cc1)C(=O)O)c1c(Cl)cccc1Cl` [Example 50, N-(2,6-Dichlorobenzoyl)-4-[2-(hydroxymethyl)phenyl]-L-phenylalanine] has an IC50 of less than 300 nM. `COCc1ccccc1-c1ccc(C[C@H](NC(=O)c2c(Cl)cccc2Cl)C(=O)O)cc1` [Example 51, N-(2,6-Dichlorobenzoyl)-4-[2-(methoxymethyl)phenyl]-L-phenylalanine] gave an IC50 of 300 to 1000 nM. In the case of `O=C(O)c1ccccc1-c1ccc(C[C@H](NC(=O)c2c(Cl)cccc2Cl)C(=O)O)cc1` [Example 52, N-(2,6-Dichlorobenzoyl)-4-(2-carboxyphenyl)-L-phenylalanine], the IC50 is reported as greater than 5000 nM. Compound `O=C(NCc1ccccc1)c1ccccc1-c1ccc(C[C@H](NC(=O)c2c(Cl)cccc2Cl)C(=O)O)cc1` [Example 53, N-(2,6-Dichlorobenzoyl)-4-[2-(N-benzylcarbamoyl)phenyl]-L-phenylalanine] has an IC50 of 1000 to 5000 nM. Compound `CNC(=O)c1ccccc1-c1ccc(C[C@H](NC(=O)c2c(Cl)cccc2Cl)C(=O)O)cc1` [Example 54, N-(2,6-Dichlorobenzoyl)-4-[2-(N-methylcarbamoyl)phenyl]-L-phenylalanine] has an IC50 of 300 to 1000 nM. Compound `CCCCNC(=O)c1ccccc1-c1ccc(C[C@H](NC(=O)c2c(Cl)cccc2Cl)C(=O)O)cc1` [Example 55, N-(2,6-Dichlorobenzoyl)-4-[2-(N-n-butylcarbamoyl)phenyl]-L-phenylalanine] has an IC50 of 1000 to 5000 nM. Work on `O=C(NCCO)c1ccccc1-c1ccc(C[C@H](NC(=O)c2c(Cl)cccc2Cl)C(=O)O)cc1` [Example 56, N-(2,6-Dichlorobenzoyl)-4-[2-[N-(2-hydroxyethyl)carbamoyl]phenyl]-L-phenylalanine] yielded an IC50 of 300 to 1000 nM.
